{"source": "paper PMC7093242", "about": "(Cell chemical biology, 2020)", "target": "Yck2-HA (HA-tagged Yck2) (Candida albicans, UniProt A0A1D8PKB4)", "assay": "ADP-Glo kinase assay on immunoprecipitated Yck2-HA beads", "assay_type": "biochemical", "conditions": "25 μM ATP, 0.2 mg/mL casein kinase I peptide substrate, pH 7.5, 30°C; little effect"}
{"smiles": "CN[C@@H]1C[C@H]2O[C@@](C)([C@@H]1OC)n1c3ccccc3c3c4c(c5c6ccccc6n2c5c31)C(=O)NC4", "note": "[STS, staurosporine]", "values": [{"measurement": "concentration-dependent inhibition", "result": "the promiscuous PKI, staurosporine had little effect on Yck2 activity"}]}
